Experimental data: PubChem BioAssay (NCI)
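Grown in 96-well plates, cells were treated for 48 hours with each compound at five concentrations. Insufficient inhibition: endpoint recorded as highest concentration tested. Abbreviation: GI50, concentration required for 50% inhibition of growth. TGI: concentration producing complete growth inhibition.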 Where a SMILES comes first, the peptide text is derived from it. The star is where a group is joined. Boc = CC(C)(C)OC(=O)*

Columns and labels:
Assay in all cases: inhibition of tumour cell growth, NCI panel, 48 h
[1] = system: MDA-N
[2] = system: OVCAR-3 ovarian
[3] = system: HOP-92 NSCLC
[4] = system: SW-620 colon
[5] = system: OVCAR-4 ovarian
[6] = system: SF-539 CNS
[7] = system: KM12 colon
[8] = system: HCC-2998 colon
[9] = system: ACHN renal
[10] = system: IGROV1 ovarian
[11] = system: CAKI-1 renal
[12] = system: SK-OV-3 ovarian
[13] = system: NCI-H226 lung
[14] = system: RXF 393 renal

Row | SMILES | TGI [1] | TGI [2] | TGI [3] | TGI [4] | TGI [5] | TGI [6] | TGI [7] | TGI [8] | TGI [9] | TGI [10] | TGI [11] | TGI [12] | TGI [13] | TGI [14] | GI50 [13] | GI50 [2] | GI50 [14]
1 | O=C(c1ccccc1)c1ccc(N2C(=O)/C(=C/c3cccc([N+](=O)[O-])c3)N=C2c2ccccc2)c(N2C(=O)/C(=C/c3cccc([N+](=O)[O-])c3)N=C2c2ccccc2)c1 | 86.6 µM | > 100 µM | > 100 µM | > 100 µM | > 100 µM | > 100 µM | > 100 µM | 60.1 µM | > 100 µM | > 100 µM | > 100 µM | > 100 µM |  |  |  |  | 
2 | O=C1CCN(CCC(F)(F)C(F)(F)C(F)(F)C(F)(F)F)C(=S)N1 |  | > 100 µM |  | > 100 µM | > 100 µM | > 100 µM | > 100 µM |  | > 100 µM | > 100 µM |  |  | > 100 µM | > 100 µM |  |  | 
3 | COc1cc(/C=C(\C)c2ccc3c(c2)OCO3)cc(OC)c1OC |  | > 100 µM |  | 95 µM | > 100 µM | 58.7 µM | > 100 µM | > 100 µM | 49.3 µM | > 100 µM |  | 75.1 µM | > 100 µM | 99.5 µM |  |  | 
4 | COc1cc(C2SC(N)=Nc3c2c(C)nn3C(=O)Cc2ccccc2)cc(OC)c1OC (configuration not stated) | > 100 µM |  |  | > 100 µM |  | > 100 µM | > 100 µM | > 100 µM | > 100 µM | > 100 µM | > 100 µM | > 100 µM | > 100 µM |  |  |  | 
5 | Cc1c(/C=N/NC(=S)Nc2ccc([N+](=O)[O-])cc2)c(=O)n(-c2ccccc2)n1C |  |  | 25.5 µM | > 100 µM | 34.7 µM | 30 µM | 51.1 µM | > 100 µM | 23.6 µM | 25.9 µM | 18.9 µM | 26.3 µM | 29.7 µM | 24.8 µM |  |  | 
6 | COc1ccc(-c2cc(=O)c3cc4c(cc3[nH]2)OCO4)c(OC)c1 |  | > 100 µM | > 100 µM | > 100 µM | > 100 µM | > 100 µM | > 100 µM | > 100 µM | > 100 µM | > 100 µM | > 100 µM | > 100 µM | > 100 µM | > 100 µM | 93.5 µM | > 100 µM | 45.4 µM
7 | NC(=S)N/N=C/c1cn(CCCl)c2ccccc12 |  | > 100 µM | > 100 µM | > 100 µM |  |  | > 100 µM |  |  | > 100 µM | > 100 µM | > 100 µM |  | > 100 µM |  |  | 
8 | ClCc1nnc2n1-c1ccc(Cl)cc1SC2 |  | 8.09 µM | 9.26 µM | 24 µM | 12.6 µM | 13.2 µM | 15.1 µM | 11 µM |  | 8.09 µM |  | 12.6 µM | 5.64 µM | 9.79 µM |  |  | 
9 | CC(=O)OCC(OC(C)=O)C(OC(C)=O)C(/C=N\Nc1nc2ccccc2c(=O)[nH]1)OC(C)=O (configuration not stated) | > 100 µM | > 100 µM | > 100 µM | > 100 µM |  | > 100 µM | > 100 µM |  | > 100 µM | > 100 µM | > 100 µM | > 100 µM | > 100 µM |  |  |  | 
10 | N[C@@H]1c2c(Br)sc(Br)c2C(=O)[C@H]1Br |  | > 89.8 µM | 33 µM | 44.4 µM | 89.5 µM | > 100 µM | > 61.5 µM | > 76.1 µM | 43.8 µM | 45.9 µM | 66.4 µM | > 100 µM | > 58.4 µM | 53.6 µM |  |  | 
11 | CN1C[C@@H]2CC(=O)CC[C@@H]2C[C@H]1C#N |  | > 100 µM | > 100 µM | > 100 µM | > 100 µM |  | > 100 µM | > 100 µM | > 100 µM | > 100 µM | > 100 µM | > 100 µM | > 100 µM |  |  |  | 
12 | CC1(C)CC(=O)c2c(nc3c(ccc4ccccc43)c2-c2ccc(NC(=O)CCCCCCCCC(=O)Nc3ccc(-c4c5c(nc6c4ccc4ccccc46)CC(C)(C)CC5=O)cc3)cc2)C1 | > 100 µM | > 100 µM |  | > 100 µM |  | > 100 µM | > 100 µM |  | > 100 µM | > 100 µM | > 100 µM | > 100 µM | > 100 µM |  |  |  | 
13 | Cc1cc2c(=O)c3ccc(Cl)cc3[nH]c2c(C(=O)O)c1C |  | > 100 µM |  | > 100 µM | > 100 µM | > 100 µM | > 100 µM | > 100 µM | > 100 µM | > 100 µM | > 100 µM | > 100 µM | > 100 µM | > 100 µM |  |  | 
14 | CNC(=O)CNC(=O)C(NC(=O)CNC(=O)C1CCCN1C(=O)C(C)NC(=O)C(NC(=O)OC(C)(C)C)C(C)C)C(C)C (configuration not stated) (Boc-VAPGVG-NHMe; configuration not given here) | > 100 µM | > 100 µM | > 100 µM | > 100 µM | > 100 µM | > 100 µM |  | > 100 µM | > 100 µM | > 100 µM | > 100 µM | > 100 µM |  |  |  |  | 
